Measurements: patent US11312723B2, “Pyranopyrazole and pyrazolopyridine immunomodulators for treatment of autoimmune diseases” (The Rockefeller University, priority 2017, dated 2022)
Where a name gives a salt, the structure may show the parent alone.

Key:
[1] = molecular target: Human alpha-thrombin (Homo sapiens (Human), UniProt P00734); experiment: Thrombin counterscreen for selectivity, fluorogenic substrate cleavage; type: biochemical; details: 10 min pre-incubation, Boc-Val-Pro-Arg-AMC 20 μM
Experimental: Counterscreens for Selectivity:
Thrombin. In a 96-well white opaque plate, 80 μl of assay buffer was added to each well. Test compounds were added, and serially diluted as above, to generate a concentration range of approximately 1-100 μM. Human alpha-thrombin (Enzyme Research Labs) was diluted in assay buffer to a final concentration of 12.5 nM. 80 μl of this enzyme solution was added to the assay wells. The enzyme/compound mixtures were incubated for 10 minutes at room temperature. Fluorogenic substrate (Boc-Val-Pro-Arg-7-amido-4-methylcoumarin; Sigma) was added to assay wells at a final concentration of 20 μM. The assay plate was spun for 1 minute at 1500 g and then read at 37° C. in a SpectraMax M2 plate reader (λex=380 nm and λem=460 nm). Activity was quantified as the rate of change in fluorescence, which corresponds to the rate of substrate cleavage. IC50 values were determined as the concentration of inhibitor that produced 50% of the rate of change of control wells without any inhibitor. For compounds with activity <1 μM, the assay was repeated with a lower concentration range, typically from 10-1000 nM.

[2] = molecular target: Human FXIIa (Homo sapiens (Human), UniProt P00748); experiment: Factor XIIa (FXIIa) inhibitory activity, chromogenic substrate (Pefachrome XIIa) cleavage; type: biochemical; details: 10 min pre-incubation, Pefachrome XIIa 400 μM
Chain of Human FXIIa (P00748 373-615): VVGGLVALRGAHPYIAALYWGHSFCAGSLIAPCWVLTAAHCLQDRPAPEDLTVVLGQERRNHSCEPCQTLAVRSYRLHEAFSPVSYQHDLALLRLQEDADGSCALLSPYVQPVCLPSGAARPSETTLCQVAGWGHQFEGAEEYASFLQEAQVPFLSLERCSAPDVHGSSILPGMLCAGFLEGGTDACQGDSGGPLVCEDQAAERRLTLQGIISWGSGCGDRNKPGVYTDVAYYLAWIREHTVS
Chain of Human FXIIa (P00748 20-372 partner): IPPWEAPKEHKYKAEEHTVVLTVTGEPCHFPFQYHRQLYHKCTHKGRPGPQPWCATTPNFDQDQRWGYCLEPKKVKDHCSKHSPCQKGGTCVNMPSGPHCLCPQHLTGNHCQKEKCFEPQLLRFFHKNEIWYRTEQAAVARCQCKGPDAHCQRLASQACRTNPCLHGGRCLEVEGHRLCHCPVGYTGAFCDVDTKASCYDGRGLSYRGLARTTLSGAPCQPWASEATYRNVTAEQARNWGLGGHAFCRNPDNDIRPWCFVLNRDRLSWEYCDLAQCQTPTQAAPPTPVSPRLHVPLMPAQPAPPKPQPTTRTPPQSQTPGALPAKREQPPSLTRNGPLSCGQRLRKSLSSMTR

Structure (SMILES)	IC50 [1]	IC50 [2]
CCN1CCc2c(nn(C(=O)[C@H]3CCNc4c(C)cc(F)cc43)c2N)C1 (single isomer, unassigned) [Example 170, (S*)-(3-amino-6-ethyl-4,5,6,7-tetrahydro-pyrazolo[3,4-c]pyridin-2-yl)(6-fluoro-8-methyl-1,2,3,4-tetrahydro-quinolin-4-yl)methanone]	> 90 µM	0.01 µM
CCN1CCc2c(c(N)nn2C(=O)C2CCNc3ccccc32)C1 (centres unmarked) [Example 94, (3-amino-5-ethyl-4,5,6,7-tetrahydro-pyrazolo[4,3-c]pyridin-1-yl)(1,2,3,4-tetrahydro-quinolin-4-yl)methanone]	> 80 µM	> 50 µM
CNC(=O)N1CCc2c(c(N)nn2C(=O)C2CCNc3ccccc32)C1 (centres unmarked) [Example 90, 3-amino-N-methyl-1-(1,2,3,4-tetrahydro-quinoline-4-carbonyl)-6,7-dihydro-1H-pyrazolo[4,3-c]pyridine-5(4H)-carboxamide]	12 µM	1.5 µM
CS(=O)(=O)N1CCc2c(nn(C(=O)C3CCNc4ccc(C(F)(F)F)cc43)c2N)C1 (centres unmarked) [Example 24, (3-amino-6-(methylsulfonyl)-4,5,6,7-tetrahydropyrazolo[3,4-c]pyridin-2-yl)(6-(trifluoromethyl)-1,2,3,4-tetrahydroquinolin-4-yl)methanone]	25 µM	0.1 µM
CNC(=O)N1CCc2c(N)nn(C(=O)C3CCNc4ccccc43)c2C1 (centres unmarked) [Example 113, 3-amino-N-methyl-1-(1,2,3,4-tetrahydro-quinoline-4-carbonyl)-4,5-dihydro-1H-pyrazolo[3,4-c]pyridine-6(7H)-carboxamide]	> 100 µM	95 µM
CS(=O)(=O)N1CCc2c(nn(C(=O)C3CCNc4ccccc43)c2N)C1 (centres unmarked) [Example 103, (3-amino-6-(methylsulfonyl)-4,5,6,7-tetrahydro-pyrazolo[3,4-c]pyridin-2-yl)(1,2,3,4-tetrahydro-quinolin-4-yl)methanone]	30 µM	0.35 µM
CC(C)N1CCc2c(nn(C(=O)C3CCNc4ccc(F)cc43)c2N)C1 (centres unmarked) [Example 151, Formic Acid salt of (3-amino-6-isopropyl-4,5,6,7-tetrahydro-pyrazolo[3,4-c]pyridin-2-yl)(6-fluoro-1,2,3,4-tetrahydro-quinolin-4-yl)methanone]	> 70 µM	0.04 µM
CS(=O)(=O)N1CCc2c(nn(C(=O)C3CCNc4ccc(-c5ccccc5)cc43)c2N)C1 (centres unmarked) [Example 49, (3-amino-6-(methylsulfonyl)-4,5,6,7-tetrahydropyrazolo[3,4-c]pyridin-2-yl)(6-phenyl-1,2,3,4-tetrahydroquinolin-4-yl)methanone]	17 µM	11 µM
CS(=O)(=O)N1CCc2c(nn(C(=O)C3CCNc4c3cccc4C(F)(F)F)c2N)C1 (centres unmarked) [Example 67, (3-amino-6-(methylsulfonyl)-4,5,6,7-tetrahydropyrazolo[3,4-c]pyridin-2-yl)(8-(trifluoromethyl)-1,2,3,4-tetrahydroquinolin-4-yl)methanone]	> 70 µM	0.15 µM
CC(C)S(=O)(=O)N1CCc2c(nn(C(=O)C3CCNc4ccccc43)c2N)C1 (centres unmarked) [Example 127, (3-amino-6-(isopropyl-sulfonyl)-4,5,6,7-tetrahydro-pyrazolo[3,4-c]pyridin-2-yl)(1,2,3,4-tetrahydro-quinolin-4-yl)methanone]	> 70 µM	0.2 µM
CCc1cc2c([nH]1)CCCC2C(=O)n1nc2c(c1N)CNCC2 (centres unmarked) [Example 6, (3-amino-4,5,6,7-tetrahydropyrazolo[4,3-c]pyridin-2-yl)(2-ethyl-4,5,6,7-tetrahydro-1H-indol-4-yl)methanone]	> 50 µM	0.25 µM
CN(C)C(=O)N1CCc2c(nn(C(=O)C3CCNc4ccccc43)c2N)C1 (centres unmarked) [Example 123, 3-amino-N,N-dimethyl-2-(1,2,3,4-tetrahydro-quinoline-4-carbonyl)-4,5-dihydro-2H-pyrazolo[3,4-c]pyridine-6(7H)-carboxamide]	> 80 µM	0.35 µM
CC(C)S(=O)(=O)N1CCc2c(N)nn(C(=O)C3CCNc4ccccc43)c2C1 (centres unmarked) [Example 128, (3-amino-6-(isopropyl-sulfonyl)-4,5,6,7-tetrahydro-pyrazolo[3,4-c]pyridin-1-yl)(1,2,3,4-tetrahydro-quinolin-4-yl)methanone]	> 65 µM	28 µM
CCN1CCc2c(nn(C(=O)C3CCNc4ccccc43)c2N)C1 (centres unmarked) [Example 20, (3-amino-6-ethyl-4,5,6,7-tetrahydropyrazolo[3,4-c]pyridin-2-yl)(1,2,3,4-tetrahydroquinolin-4-yl)methanone]	> 40 µM	0.15 µM
CS(=O)(=O)N1CCc2nn(C(=O)C3CCNc4ccccc43)c(N)c2C1 (centres unmarked) [Example 91, (3-amino-5-(methylsulfonyl)-4,5,6,7-tetrahydro-pyrazolo[4,3-c]pyridin-2-yl)(1,2,3,4-tetrahydro-quinolin-4-yl)methanone]	> 70 µM	1.5 µM
CS(=O)(=O)N1CCc2c(nn(C(=O)[C@H]3CCNc4ccccc43)c2N)C1 (single isomer, unassigned) [Example 135, (S*)-(3-amino-6-(methylsulfonyl)-4,5,6,7-tetrahydro-pyrazolo[3,4-c]pyridin-2-yl)(1,2,3,4-tetrahydro-quinolin-4-yl)methanone]	28 µM	0.08 µM
CCN1CCc2c(nn(C(=O)C3CCNc4ccc(F)cc43)c2N)C1 (centres unmarked) [Example 163, (3-amino-6-ethyl-4,5,6,7-tetrahydro-pyrazolo[3,4-c]pyridin-2-yl)(6-fluoro-1,2,3,4-tetrahydro-quinolin-4-yl)methanone]	> 100 µM	0.03 µM
Nc1nn(C(=O)C2CCNc3ccccc32)c2c1CCN(S(=O)(=O)c1ccccc1)C2 (centres unmarked) [Example 106, (3-amino-6-(phenylsulfonyl)-4,5,6,7-tetrahydro-pyrazolo[3,4-c]pyridin-1-yl)(1,2,3,4-tetrahydro-quinolin-4-yl)methanone]	70 µM	50 µM
COc1cccc2c1NCCC2C(=O)n1nc2c(c1N)CCN(S(C)(=O)=O)C2 (single isomer, unassigned) [Example 63, (S*)-(3-amino-6-(methylsulfonyl)-4,5,6,7-tetrahydropyrazolo[3,4-c]pyridin-2-yl)(8-methoxy-1,2,3,4-tetrahydroquinolin-4-yl)methanone]	35 µM	0.14 µM
Cc1cc(F)cc2c1NCCC2C(=O)n1nc2c(c1N)CCN(S(C)(=O)=O)C2 (single isomer, unassigned) [Example 53, (S*)-(3-amino-6-(methylsulfonyl)-4,5,6,7-tetrahydropyrazolo[3,4-c]pyridin-2-yl)(6-fluoro-8-methyl-1,2,3,4-tetrahydroquinolin-4-yl)methanone]	9 µM	0.01 µM
Nc1c2c(nn1C(=O)C1CCNc3ccc(F)cc31)CN(S(=O)(=O)CF)CC2 (centres unmarked) [Example 140, (3-amino-6-(fluoromethyl-sulfonyl)-4,5,6,7-tetrahydro-pyrazolo[3,4-c]pyridin-2-yl)(6-fluoro-1,2,3,4-tetrahydro-quinolin-4-yl)methanone]	60 µM	0.13 µM
COc1cccc2c1NCCC2C(=O)n1nc2c(c1N)CCN(S(C)(=O)=O)C2 (centres unmarked) [Example 61, (3-amino-6-(methylsulfonyl)-4,5,6,7-tetrahydropyrazolo[3,4-c]pyridin-2-yl)(8-methoxy-1,2,3,4-tetrahydroquinolin-4-yl)methanone]	20 µM	0.1 µM
CCC(=O)N1CCc2c(N)nn(C(=O)C3CCNc4ccccc43)c2C1 (centres unmarked) [Example 120, 1-(3-amino-1-(1,2,3,4-tetrahydro-quinoline-4-carbonyl)-4,5-dihydro-1H-pyrazolo[3,4-c]pyridin-6(7H)-yl)propan-1-one]	> 75 µM	15 µM
Nc1c2c(nn1C(=O)C1CCNc3ccccc31)CN(S(=O)(=O)c1ccccc1)CC2 (centres unmarked) [Example 105, (3-amino-6-(phenylsulfonyl)-4,5,6,7-tetrahydro-pyrazolo[3,4-c]pyridin-2-yl)(1,2,3,4-tetrahydro-quinolin-4-yl)methanone]	> 100 µM	1 µM
CN1CCc2c(c(N)nn2C(=O)C2CCCc3[nH]ccc32)C1 (centres unmarked) [Example 98, (3-amino-5-methyl-4,5,6,7-tetrahydro-pyrazolo[4,3-c]pyridin-1-yl)(4,5,6,7-tetrahydro-1H-indol-4-yl)methanone]	70 µM	20 µM
Cc1cccc2c1NCCC2C(=O)n1nc2c(c1N)CCN(S(C)(=O)=O)C2 (centres unmarked) [Example 34, (3-amino-6-(methylsulfonyl)-4,5,6,7-tetrahydropyrazolo[3,4-c]pyridine-2-yl)(8-methyl-1,2,3,4-tetrahydroquinolin-4-yl)methanone]	23 µM	0.04 µM
CS(=O)(=O)N1CCc2c(nn(C(=O)C3CCNc4ccc(F)cc43)c2N)C1 (single isomer, unassigned) [Example 18, (S*)-(3-amino-6-(methylsulfonyl)-4,5,6,7-tetrahydropyrazolo[3,4-c]pyridin-2-yl)(6-fluoro-1,2,3,4-tetrahydroquinolin-4-yl)methanone]	12.5 µM	0.03 µM
Cc1cc2c(C(=O)n3nc4c(c3N)CN(C)CC4)cccc2[nH]1 [Example 85, (3-amino-5-methyl-4,5,6,7-tetrahydro-pyrazolo[4,3-c]pyridin-2-yl)(2-methyl-1H-indol-4-yl)methanone]	60 µM	0.03 µM
